# What was measured:
# [1] = test system: E. faecium LNZ-R LR-4; test: MIC by standard micro dilution method (NCCLS M7-A5); type: cell-based; settings: Enterococcus faecium; linezolid-resistant strain; Mueller-Hinton medium, 16-24 h at 35° C.; read-out: MIC, microorganism (9) E. faecium LNZ-R LR-4
# [2] = test system: M. catarrhalis HCI-78; test: as above; type: cell-based; settings: Moraxella catarrhalis, HCI78; 20-24 h at 35° C., 5% CO2; read-out: MIC, microorganism (8) M. catarrhalis HCI-78
# [3] = test system: S. haemolyticus; test: as above; type: cell-based; settings: Staphylococcus haemolyticus; Mueller-Hinton medium (cation-adjusted), 16-24 h at 35° C.; read-out: MIC, microorganism (5) S. haemolyticus
# [4] = test system: E. faecium ATCC51559 MDR; test: as above; type: cell-based; settings: Enterococcus faecium, Mueller-Hinton medium (cation-adjusted), 16-24 h at 35° C., read-out: MIC, microorganism (3) E. faecium ATCC51559 MDR
# [5] = test system: B. fragilis sp. fragilis ATCC25285; test: as above; type: cell-based; settings: Bacteroides fragilis, anaerobic strain, Brucella Blood medium supplemented, read-out: MIC, microorganism (7) B. fragilis sp. fragilis ATCC25285
# [6] = test system: S. pneumoniae ATCC49619 PR; test: as above; type: cell-based; settings: Streptococcus pneumoniae, 20-24 h at 35° C., 5% CO2, read-out: MIC, microorganism (2) S. pneumoniae ATCC49619 PR
# [7] = test system: S. aureus ATCC25923 MS; test: as above; type: cell-based; settings: Staphylococcus aureus, Mueller-Hinton medium (cation-adjusted), 16-24 h at 35° C., read-out: MIC, microorganism (1) S. aureus ATCC25923 MS
# [8] = test system: H. influenzae ATCC49247; test: as above; type: cell-based; settings: Haemophilus influenzae, read-out: MIC, microorganism (6) H. influenzae ATCC49247
# [9] = test system: S. aureus LNZ-R 432; test: as above; type: cell-based; settings: Staphylococcus aureus, LNZR432; linezolid-resistant strain; Mueller-Hinton medium, 16-24 h at 35° C.; read-out: MIC, microorganism (4) S. aureus LNZ-R 432
# [10] = test system: other Gram-negative bacteria; settings: background art; cited from earlier work
# [11] = test system: Moraxella, Pasteurella and Bacteroides spp.; settings: background art; cited from earlier work
SMILES,MIC [1] [µg/mL],MIC [2] [µg/mL],MIC [3] [µg/mL],MIC [4] [µg/mL],MIC [5] [µg/mL],MIC [6] [µg/mL],MIC [7] [µg/mL],MIC [8] [µg/mL],MIC [9] [µg/mL],susceptibility of other Gram-negative bacteria [10],"MICS for Moraxella, Pasteurella and Bacteroides spp. [11] [µg/mL]"
"CC(=O)NC[C@H]1CN(c2ccc(N3CCC(n4ccnn4)C3)c(F)c2)C(=O)O1 (stereo partly drawn) [Ex. 3, N-((5S)-3-{3-fluoro-4-[3-(1-triazolyl)pyrrolidin-1-yl]-phenyl}-2-oxo-5-oxazolidinylmethyl)acetamide]",8,1,4,0.5,1,1,1,4,16,,
"CC(=O)NC[C@H]1CN(c2ccc(N3CCC(n4cc([N+](=O)[O-])cn4)C3)c(F)c2)C(=O)O1 (stereo partly drawn) [Ex. 9, N-((5S)-3-{3-fluoro-4-[3-(4-nitropyrazol)pyrrolidinyl]-phenyl}-2-oxo-5-oxazolidinylmethyl)acetamide]",4,1,1,1,0.5,0.25,1,2,8,,
"CC(=O)NC[C@H]1CN(c2ccc(N3CCC(n4cc(-c5ccncn5)cn4)C3)c(F)c2)C(=O)O1 (stereo partly drawn) [Ex. 11, N-((5S)-3-{3-fluoro-4-[3-(4-pyrimidin-4-yl-pyrazol-1-yl)pyrrolidin-1-yl]-phenyl}-2-oxo-5-oxazolidinylmethyl)acetamide]",8,0.5,,0.25,0.5,0.125,0.5,4,2,,
"CC(=O)NC[C@H]1CN(c2ccc(N3CCC(n4nnc(-c5cccs5)n4)C3)c(F)c2)C(=O)O1 (stereo partly drawn) [Ex. 15, N-((5S)-3-{3-fluoro-4-[3-(5-thiophen-2-yl-tetrazol-2-yl)pyrrolidin-1-yl]-phenyl}-2-oxo-5-oxazolidinylmethyl)acetamide]",8,2,,0.25,0.5,0.125,0.5,8,4,,
"CC(=O)NC[C@H]1CN(c2ccc(N3CCC(n4cc(Br)cn4)C3)c(F)c2)C(=O)O1 (stereo partly drawn) [Ex. 17, N-((5S)-3-{3-fluoro-4-[3-(4-bromopyrazol-1-yl)pyrrolidin-1-yl]-phenyl}-2-oxo-5-oxazolidinylmethyl)acetamide]",1,2,1,0.5,0.5,0.25,1,1,8,,
"CC(=O)NC[C@H]1CN(c2ccc(N3CCC(n4cc(-c5ccncc5)cn4)C3)c(F)c2)C(=O)O1 (stereo partly drawn) [Ex. 18, N-((5S)-3-{3-fluoro-4-[3-(4-pyridin-4-yl-pyrazol-1-yl)pyrrolidin-1-yl]-phenyl}-2-oxo-5-oxazolidinylmethyl)acetamide]",8,0.5,,0.25,0.25,0.06,0.5,4,2,,
"CC(=O)NC[C@H]1CN(c2ccc(N3CCC(n4cc(-c5ccc([N+](=O)[O-])cc5)cn4)C3)c(F)c2)C(=O)O1 (stereo partly drawn) [Ex. 19, N-[(5S)-3-(3-fluoro-4-{3-[4-(4-nitrophenyl)-pyrazol-1-yl]pyrrolidin-1-yl}-phenyl)-2-oxo-5-oxazolidinylmethyl]acetamide]",64,1,,0.25,1,0.125,0.5,4,2,,
"CC(=O)NC[C@H]1CN(c2ccc(N3CCC(n4ccc(C(F)(F)F)n4)C3)c(F)c2)C(=O)O1 (stereo partly drawn) [Ex. 26, N-((5S)-3-{3-fluoro-4-[3-(3-trifluoromethyl-pyrazol-1-yl)pyrrolidin-1-yl]-phenyl}-2-oxo-5-oxazolidinylmethyl)acetamide]",2,2,1,1,1,0.5,2,1,16,,
"CC(=O)NC[C@H]1CN(c2ccc(N3CCOCC3)c(F)c2)C(=O)O1 [Linezolid, N-[[(5S)-3-[3-fluoro-4-(4-morpholinyl)phenyl]-2-oxo-5-oxazolidinyl]methyl]acetamide, reference compound]",64,2,128,0.5,2,1,1,16,16 to 32,resistant,2 to 8

# Source: patent US20110136829A1, “3-(N-HETEROCYCLYL)-PYRROLIDINYL-PHENYL-OXAZOLIDINONES AS ANTIBACTERIAL AGENTS” (FERRER INTERNACIONAL, S.A., priority 2008, published 2011)
